Data taken from PubChem BioAssay AID330 (DTP/NCI, 2004).
Where “and” joins values, the source holds several entries; their conditions need not be identical. Identical values can stand only once. Toxic doses and inconclusive results are not listed.

System: P388 leukemia ip, CD2F1 mice, survival T/C
Test: NCI In Vivo Anticancer Drug Screen. Data for tumor model P388 Leukemia (intraperitoneal) in CD2F1 (CDF1) mice
Conditions: endpoint: median survival time, higher = longer survival
Outline: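 Mice carrying the transplanted tumor received test compound or vehicle. Survival was recorded in each group, and the value is the treated-group measurement divided by that of the vehicle-treated control group.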

[1] = dose: 30.0 mg/kg/injection, schedule: Q01DX009 (ip), vehicle: saline
[2] = dose: 50.0 mg/kg/injection, schedule: Q01DX009 (ip), vehicle: saline
[3] = dose: 50.0 mg/kg/injection, schedule: Q01DX009 (ip), vehicle: Klucel (hydroxypropylcellulose) (HPC)
[4] = dose: 100.0 mg/kg/injection, schedule: Q01DX009 (ip), vehicle: Klucel (hydroxypropylcellulose) (HPC)
[5] = dose: 200.0 mg/kg/injection, schedule: Q01DX009 (ip), vehicle: Klucel (hydroxypropylcellulose) (HPC)
[6] = dose: 50.0 mg/kg/injection, schedule: Q01DX005 (ip), vehicle: saline with Tween-80
[7] = dose: 100.0 mg/kg/injection, schedule: Q01DX005 (ip), vehicle: saline with Tween-80
[8] = dose: 200.0 mg/kg/injection, schedule: Q01DX005 (ip), vehicle: saline with Tween-80
[9] = dose: 100.0 mg/kg/injection, schedule: Q04DX003 (ip), vehicle: saline
[10] = dose: 200.0 mg/kg/injection, schedule: Q04DX003 (ip), vehicle: saline

O=C(O)Cc1cccc2c(=O)cc(-c3ccccc3)oc12
T/C (dose: 24.12 mg/kg/injection, schedule: Q01DX005 (ip), vehicle: saline): 104 % of control | T/C [1]: 101 % of control and 103 % of control and 106 % of control | T/C (dose: 40.2 mg/kg/injection, schedule: Q01DX005 (ip), vehicle: saline): 111 % of control | T/C (dose: 44.0 mg/kg/injection, schedule: Q01DX009 (ip), vehicle: saline): 109 % of control and 117 % of control and 122 % of control | T/C (dose: 45.0 mg/kg/injection, schedule: Q01DX009 (ip), vehicle: sodium bicarbonate): 116 % of control | T/C [2]: 106 % of control | T/C (dose: 60.0 mg/kg/injection, schedule: Q04DX002 (ip), vehicle: sodium bicarbonate): 103 % of control | T/C (dose: 67.0 mg/kg/injection, schedule: Q01DX001 (ip), vehicle: sodium bicarbonate): 112 % of control | T/C (dose: 90.0 mg/kg/injection, schedule: Q04DX002 (ip), vehicle: sodium bicarbonate): 118 % of control | T/C (dose: 100.0 mg/kg/injection, schedule: Q01DX001 (ip), vehicle: sodium bicarbonate): 107 % of control | T/C (dose: 111.67 mg/kg/injection, schedule: Q01DX005 (ip), vehicle: saline): 153 % of control | T/C (dose: 150.0 mg/kg/injection, schedule: Q01DX001 (ip), vehicle: sodium bicarbonate): 106 % of control | T/C (dose: 186.12 mg/kg/injection, schedule: Q01DX005 (ip), vehicle: saline): 172 % of control | T/C (dose: 200.0 mg/kg/injection, schedule: Q01DX001 (ip), vehicle: sodium bicarbonate): 112 % of control | T/C (dose: 223.0 mg/kg/injection, schedule: Q01DX001 (ip), vehicle: sodium bicarbonate): 103 % of control | T/C (dose: 300.0 mg/kg/injection, schedule: Q01DX001 (ip), vehicle: sodium bicarbonate): 116 % of control | T/C (dose: 333.0 mg/kg/injection, schedule: Q01DX001 (ip), vehicle: sodium bicarbonate): 112 % of control | T/C (dose: 400.0 mg/kg/injection, schedule: Q01DX001 (ip), vehicle: sodium bicarbonate): 114 % of control | T/C (dose: 500.0 mg/kg/injection, schedule: Q01DX001 (ip), vehicle: sodium bicarbonate): 116 % of control

COc1ccc(C(C#N)C(=O)C(=O)Nc2ccc(Cl)cc2C)cc1OC (centres undefined)
T/C (dose: 60.0 mg/kg/injection, schedule: Q01DX005 (ip), vehicle: saline with Tween-80): 100 % of control | T/C (dose: 120.0 mg/kg/injection, schedule: Q01DX005 (ip), vehicle: saline with Tween-80): 100 % of control | T/C (dose: 240.0 mg/kg/injection, schedule: Q01DX005 (ip), vehicle: saline with Tween-80): 105 % of control

COC(=O)C(c1c(O)cc(C)oc1=O)C(C(=O)OC)c1c(O)cc(C)oc1=O (centres undefined)
T/C (dose: 100.0 mg/kg/injection, schedule: Q04DX003 (ip), vehicle: Klucel (hydroxypropylcellulose) (HPC)): 96 % of control | T/C (dose: 200.0 mg/kg/injection, schedule: Q04DX003 (ip), vehicle: Klucel (hydroxypropylcellulose) (HPC)): 95 % of control | T/C (dose: 400.0 mg/kg/injection, schedule: Q04DX003 (ip), vehicle: Klucel (hydroxypropylcellulose) (HPC)): 96 % of control

CCCC(=O)C(=O)c1ccc(O)cc1O
T/C [3]: 108 % of control | T/C [4]: 116 % of control | T/C [5]: 119 % of control

COc1ccc(C2N(c3ccccc3)CCN2c2ccccc2)cc1
T/C [6]: 99 % of control | T/C [7]: 93 % of control | T/C [8]: 93 % of control

CCCCCCN(CCCCCC)CC(O)c1cc2c(c3ccccc13)CCCC2 (centres undefined)
T/C [6]: 94 % of control | T/C [7]: 103 % of control | T/C [8]: 103 % of control

Cn1nnnc1N/N=C(\Br)c1ccccc1
T/C (dose: 200.0 mg/kg/injection, schedule: Q01DX009 (ip), vehicle: saline with Tween-80): 104 % of control | T/C (dose: 400.0 mg/kg/injection, schedule: Q01DX009 (ip), vehicle: saline with Tween-80): 104 % of control

CC1(C)OCC(C2OC3OC(C)(C)OC3C2N=O)O1 (centres undefined)
T/C (dose: 94.5 mg/kg/injection, schedule: Q04DX002 (ip), vehicle: Klucel (hydroxypropylcellulose) (HPC)): 103 % of control | T/C (dose: 189.0 mg/kg/injection, schedule: Q04DX002 (ip), vehicle: Klucel (hydroxypropylcellulose) (HPC)): 96 % of control | T/C (dose: 378.0 mg/kg/injection, schedule: Q04DX002 (ip), vehicle: Klucel (hydroxypropylcellulose) (HPC)): 90 % of control

[O-]/[N+](=C\c1ccc(Cl)cc1Cl)c1ccccc1
T/C [3]: 96 % of control | T/C [4]: 100 % of control | T/C [5]: 100 % of control

COC(=O)C1(C)C(=O)C=CC2(C)C1CC(OC(C)=O)C1(C)C2C(=O)C(OC(C)=O)C2(C)C(c3ccoc3)CC3OC321 (centres undefined)
T/C (dose: 0.75 mg/kg/injection, schedule: Q01DX005 (ip), vehicle: Klucel (hydroxypropylcellulose) (HPC)): 99 % of control | T/C (dose: 1.5 mg/kg/injection, schedule: Q01DX005 (ip), vehicle: Klucel (hydroxypropylcellulose) (HPC)): 101 % of control | T/C (dose: 3.0 mg/kg/injection, schedule: Q01DX005 (ip), vehicle: Klucel (hydroxypropylcellulose) (HPC)): 97 % of control | T/C (dose: 6.0 mg/kg/injection, schedule: Q01DX005 (ip), vehicle: Klucel (hydroxypropylcellulose) (HPC)): 97 % of control | T/C (dose: 12.0 mg/kg/injection, schedule: Q01DX005 (ip), vehicle: Klucel (hydroxypropylcellulose) (HPC)): 98 % of control

S=C(Nc1ccc(N=Nc2ccccc2)cc1)SCc1ccccc1
T/C [9]: 98 % of control | T/C [10]: 92 % of control | T/C (dose: 400.0 mg/kg/injection, schedule: Q04DX003 (ip), vehicle: saline): 91 % of control

O=C(O)C(=O)O.O=C(O)C(=O)O.OO.OO.[Nb]
T/C (dose: 12.5 mg/kg/injection, schedule: Q01DX009 (ip), vehicle: saline): 98 % of control

CC(O)CN(Cc1c(O)ccc2ccccc12)CC(C)O (centres undefined)
T/C [6]: 108 % of control | T/C [7]: 110 % of control | T/C [8]: 99 % of control

N=c1nc(N)c2ncc(/C=C/c3ccccc3)n(O)c-2n1
T/C (dose: 15.0 mg/kg/injection, schedule: Q01DX009 (ip), vehicle: saline): 97 % of control | T/C [1]: 101 % of control | T/C (dose: 60.0 mg/kg/injection, schedule: Q01DX009 (ip), vehicle: saline): 101 % of control

CCOC(=O)c1ccccc1Nc1c(C(=O)OCC)cnc2cc3c(cc12)OCO3
T/C (dose: 60.0 mg/kg/injection, schedule: Q01DX005 (ip), vehicle: Klucel (hydroxypropylcellulose) (HPC)): 106 % of control | T/C (dose: 120.0 mg/kg/injection, schedule: Q01DX005 (ip), vehicle: Klucel (hydroxypropylcellulose) (HPC)): 98 % of control | T/C (dose: 240.0 mg/kg/injection, schedule: Q01DX005 (ip), vehicle: Klucel (hydroxypropylcellulose) (HPC)): 97 % of control

C[CH2][Ge]([CH2]C)[CH2]C.C[CH2][Ge]([CH2]C)[O]C(C)=O
T/C [2]: 95 % of control | T/C (dose: 100.0 mg/kg/injection, schedule: Q01DX009 (ip), vehicle: saline): 98 % of control | T/C (dose: 200.0 mg/kg/injection, schedule: Q01DX009 (ip), vehicle: saline): 96 % of control

COC1/C=C\C=C(/C)C(=O)NC2=CC(=O)C(NC3CC3)=C(CC(C)CC(OC)C(O)C(C)/C=C(/C)C1OC(N)=O)C2=O (centres undefined)
T/C (dose: 12.5 mg/kg/injection, schedule: Q04DX002 (ip), vehicle: saline with Tween-80): 107 % of control | T/C (dose: 18.75 mg/kg/injection, schedule: Q04DX002 (ip), vehicle: saline with Tween-80): 108 % of control | T/C (dose: 25.0 mg/kg/injection, schedule: Q04DX002 (ip), vehicle: saline with Tween-80): 107 % of control and 113 % of control | T/C (dose: 37.5 mg/kg/injection, schedule: Q04DX002 (ip), vehicle: saline with Tween-80): 108 % of control | T/C (dose: 50.0 mg/kg/injection, schedule: Q04DX002 (ip), vehicle: saline with Tween-80): 111 % of control and 113 % of control | T/C (dose: 75.0 mg/kg/injection, schedule: Q04DX002 (ip), vehicle: saline with Tween-80): 117 % of control | T/C (dose: 100.0 mg/kg/injection, schedule: Q04DX002 (ip), vehicle: saline with Tween-80): 120 % of control and 88 % of control

CCCOP(=S)(N1CC1(C)C)N1CC1(C)C (centres undefined)
T/C (dose: 12.5 mg/kg/injection, schedule: Q01DX009 (ip), vehicle: saline with Tween-80): 104 % of control | T/C (dose: 25.0 mg/kg/injection, schedule: Q01DX009 (ip), vehicle: saline with Tween-80): 113 % of control | T/C (dose: 150.0 mg/kg/injection, schedule: Q01DX009 (ip), vehicle: saline with Tween-80): 155 % of control

CNCC1CCCCC1NC (centres undefined)
T/C (dose: 50.0 mg/kg/injection, schedule: Q04DX003 (ip), vehicle: saline): 99 % of control | T/C [9]: 97 % of control | T/C [10]: 96 % of control

CC(=O)Nc1ccc(S(=O)(=O)N/N=C/C(=O)O)cc1
T/C (dose: 3.13 mg/kg/injection, schedule: Q01DX009 (ip), vehicle: other): 101 % of control | T/C (dose: 6.25 mg/kg/injection, schedule: Q01DX009 (ip), vehicle: other): 111 % of control | T/C (dose: 12.5 mg/kg/injection, schedule: Q01DX009 (ip), vehicle: other): 118 % of control
